Measurements taken from patent publication US11541065B2, “Compositions and methods for treating brain injury” (UNM RAINFOREST INNOVATIONS, priority 2018, dated 2023).

Legend:
[1] = Total plasma homocysteine after osmotic pump implantation, mice (HPLC); assay type: in vivo, WT and GluN2A-KO mice; conditions: mouse, subcutaneous, 200 mM solution (200 μl osmotic pump, flow rate 1 μl/hr), osmotic pump with 200 mM L-homocysteine; for concentration at 5 day: day 5
Procedure: L-homocysteine (200 mM) was freshly prepared by alkali hydrolysis of L-homocysteine thiolactone hydrochloride followed by neutralization, and maintained in 0.02 mM of N-Tris(hydroxymethyl)methyl-2-aminoethanesulfonic acid buffer pH 7.4 as previously described (Poddar et al., 2001, Circulation, 103:2717-2723). Osmotic pumps (Alzet, 2ML1, flow rate 10 μl/hr; Durect Corp., Cupertino, Calif.) containing either 2 ml of freshly prepared 200 mM L-homocysteine (for hyperhomocysteinemia) or normal saline (for control) were surgically implanted subcutaneously on the back and posterior to the scapulae of male Wistar rats under anesthesia (2% isoflurane in medical grade oxygen). The incision was closed after implantation and the rats were allowed to recover in their cage. For both WT and GluN2A-KO mice, osmotic pumps (Alzet, 2001, flow rate 1 μl/hr; Durect Corp., Cupertino, Calif.) containing either 200 μl of freshly prepared 200 mM L-homocysteine (for hyperhomocysteinemia) or normal saline (for control) were implanted similarly.
Blood was obtained from rats (retro-orbital) and mice (cardiac puncture) under anesthesia with 2% isoflurane in medical grade oxygen, before installation of osmotic pumps (0 day) and at various time points after installation of osmotic pumps (rats: day 3, day 5, and day 7; mice: day 3 and day 5). Blood was collected in standardized VACUTAINER venous blood collection EDTA-tubes (ThermoFisher Scientific, Inc., Waltham, Mass.) and centrifuged at 3,500 rpm for 15 minutes. The plasma obtained was analyzed for total plasma homocysteine levels using high performance liquid chromatography with post-column fluorescence detection as previously described (Gilfix et al., 1997, Clin Chem 43:687-688; Jacobsen et al., 1994, Clin Chem 40:873-881; Miller et al., 2013, Am J Clin Nutr 97:827-834).

cPLA2 = cPLA2 activity in WT and GluN2A-KO mouse neuronal lysates; assay type: cell-based, mice; conditions: L-homocysteine 50 μM, four hours
Procedure: Neuron cultures were treated with or without L-homocysteine in the presence or absence of pharmacological inhibitors for the time period specified in each experiment. The medium was collected from each experimental plate and centrifuged at 1000 rpm for five minutes to remove cellular debris. Equal amounts (100 μl) of the supernatant from each sample were used to determine the amount of PGE2 using the PGE2 enzyme immunoassay kit according to the manufacturer's instructions. For measurement of cPLA2 activity, the neuronal cells from the above treated conditions were harvested in ice-cold Tris-buffered saline (pH7.4) containing sodium pyrophosphate as phosphatase inhibitor, sonicated three times with five-second bursts and two minutes on ice between intervals. The lysed cell suspensions were centrifuged at 10,000 rpm for 10 minutes and the supernatant removed. Equal amounts of protein from the supernatant (assessed using BCA protein estimation kit) were estimated for activity of cPLA2 using cPLA2 activity assay kit according to the manufacturer's protocol.
For measurement of cPLA2 activity and MCP-1 levels in cell lysates, neuronal lysates were prepared by harvesting neurons in ice-cold Tris-buffered saline (pH 7.4) containing phosphatase inhibitor, sonicated three times in five-second bursts and placed on ice (two minutes) between each burst of sonication. […]

[2] = test system: hyperhomocysteinemic rats subjected to MCAO; assay: CatWalk gait analysis after MCAO; assay type: in vivo, male Wistar rats; conditions: HHcy rats, 7 days after MCAO, NVP-AAM077 1.2 mg/kg
Procedure: All rats were subjected to a battery of behavioral tests on day 7 (CatWalk), day 8 (cylinder and rotarod tests) and day 9 (adhesive test) after MCAO to evaluate normal gait, motor coordination and sensory motor functions. Habituation and training (3 days) was performed for one week before MCAO. The first two trainings days were before osmotic pump implantation and the third training day was after pump implantation. An experienced observer blinded to the experimental conditions evaluated all behavioral parameters.
Catwalk: An automated quantitative gait analysis system (Catwalk XT 10.5, Noldus) was used to assess deficits in normal gait in the control, hyperhomocysteinemic and NVP-AAM077 treated hyperhomocysteinemic rats as described earlier (Parkkinen et a., 2013, Stroke Res Treat 2013:410972; Wang et al., 2008, J Cereb Blood Flow Metab 28:1936-50). Briefly, rats were trained to walk on a glass platform or walkway (1.3 m long and 90 mm wide) with a fluorescent light reflected internally in the glass floor as the rats cross the walkway, scattering at points where the paws touch the glass. […] The camera recorded three such complete or successful runs across the walkway and the average of the three runs is reported. An experienced observer, blinded to the experimental group, labeled each paw on the recorded video and paw-related parameters were analyzed. […]

Row | Compound | concentration at 3 day ([1]; GluN2A-KO mice, day 3, day 0 5.72±0.33 μM) [µM] | concentration at 5 day ([1]; GluN2A-KO mice) [µM] | concentration at 3 day ([1]; WT mice, day 3, day 0 6.6±0.73 μM) [µM] | concentration at 5 day ([1]; WT mice) [µM] | cPLA2 activity (cPLA2; neurons from GluN2A-KO mice) | cPLA2 activity (cPLA2; neurons from WT mice) | print position of the affected side ([2]; untreated HHcy 0.72±0.15) [cm] | print area of the affected forepaw ([2]; untreated HHcy 1.06±0.097) [cm^2]
1 | N[C@@H](CCS)C(=O)O [L-homocysteine] | 18.5 ± 2.55 | 15.9 ± 2.09 | 19 ± 1.68 | 16.7 ± 1.73 | cPLA2 activity remain unchanged | cPLA2 activity increase significantly | – | –
2 | C[C@H](NC(c1cccc2[nH]c(=O)c(=O)[nH]c12)P(=O)(O)O)c1ccc(Br)cc1 (stereo partly drawn) [NVP-AAM077, ({[(1S)-1-(4-bromophenyl)ethyl]amino}-(2,3-dioxo-1,4-dihydroquinoxalin-5-yl)methyl)phosphonic acid] | – | – | – | – | – | – | 1.37±0.097 | 1.41±0.092
